target: human thrombin (Homo sapiens, UniProt P00734); assay: Fluorescence-based thrombin inhibition assay; type: biochemical

With `O=C(/C=C/c1ccc(O[C@@H]2O[C@H](CO)[C@@H](O)[C@H](O)[C@H]2O)cc1)c1ccc(O)cc1O` [compound 1, isoliquiritin] the “Anti-thrombin activity (in words)” value was “moderate”.
With `O=C(/C=C/c1ccc(O)cc1)c1ccc(O)cc1O` [compound 2, isoliquiritigenin] the “Anti-thrombin activity (in words)” value was “moderate”.
For `COc1cc(O)ccc1/C=C/C(=O)c1ccc(O)cc1` [compound 6, echinatin], the “Anti-thrombin activity (in words)” value was “moderate”.
In the case of isoliquiritin apioside [compound 8], the “Anti-thrombin activity (in words)” value is reported as “moderate”.

Point of comparison: `O=C(/C=C/c1ccc(O)cc1)c1ccc(O)cc1O` [compound 2, isoliquiritigenin], IC50 17.9 ± 2.75 µM. Against it:
- O=C(/C=C/c1ccc(O[C@@H]2O[C@H](CO)[C@@H](O)[C@H](O)[C@H]2O)cc1)c1ccc(O)cc1O [compound 1, isoliquiritin] — 2.2-fold higher, 38.8 ± 4.04 µM
- COc1cc(O)ccc1/C=C/C(=O)c1ccc(O)cc1 [compound 6, echinatin] — 1.6-fold higher, 28.5 ± 2.65 µM
- CC(C)=CCc1cc([C@@H]2CC(=O)c3ccc(O)c(CC=C(C)C)c3O2)ccc1O [compound 11, glabrol] — higher, > 100 µM
- O=C1C[C@@H](c2ccc(O[C@@H]3O[C@H](CO)[C@@H](O)[C@H](O)[C@H]3O)cc2)Oc2cc(O)ccc21 [compound 12, liquiritin] — higher, > 100 µM
- CC(C)=CCc1c(O)cc2oc(-c3ccc(O)cc3)c(O)c(=O)c2c1O [compound 14, licoflavonol] — higher, > 100 µM
- CC(C)=CCc1cc(-c2oc3cc(O)cc(O)c3c(=O)c2O)ccc1O [compound 15, isolicoflavonol] — higher, > 100 µM
- COc1c(CC=C(C)C)c(O)cc2oc(=O)c(-c3ccc(O)cc3O)cc12 [compound 16, glycycoumarin] — higher, > 100 µM
- COc1c2c(cc3oc(=O)c4c5ccc(O)cc5oc4c13)OC(C)(C)CC2 [compound 17, isoglycyrol] — higher, > 100 µM
- CC1(C)[C@@H](O)CC[C@]2(C)[C@H]3C(=O)C=C4[C@@H]5C[C@@](C)(C(=O)O)CC[C@]5(C)CC[C@@]4(C)[C@]3(C)CC[C@@H]12 [compound 18, glycyrrhetinic acid] — higher, > 100 µM
- CC1(C)[C@@H](O[C@H]2O[C@H](C(=O)O)[C@@H](O)[C@H](O)[C@H]2O[C@@H]2O[C@H](C(=O)O)[C@@H](O)[C@H](O)[C@H]2O)CC[C@]2(C)[C@H]3C(=O)C=C4[C@@H]5C[C@@](C)(C(=O)O)CC[C@]5(C)CC[C@@]4(C)[C@]3(C)CC[C@@H]12 [compound 19, glycyrrhizic acid] — higher, > 100 µM
- CC1(C)C=Cc2c(ccc3c2OC[C@@H](c2ccc(O)cc2O)C3)O1 [compound 20, glabridin] — higher, > 100 µM
- COc1cc(O)c2c(=O)cc(-c3ccc(OC)c(-c4c(O)cc(O)c5c(=O)cc(-c6ccc(O)cc6)oc45)c3)oc2c1 [compound 22, Ginkgetin, reference compound] — 2.2-fold lower, 8.05 ± 1.5 µM
- O=c1cc(-c2ccccc2)oc2cc(O)c(O)c(O)c12 [compound 23, Baicalein, reference compound] — 2-fold higher, 36.1 ± 4.68 µM
